Data on 2 compounds can be found in paper PMC7377239, “Cardiovascular Effects of Polychlorinated Biphenyls and Their Major Metabolites” (Environmental Health Perspectives, 2020).

Counter-ions that a name gives are not always drawn. Like-named read-outs stand apart in the source and are kept apart here.

One test deals with HUVECs. The test can be described thus: High-content imaging cytotoxicity in HUVECs, 24 h. The test is classed as cell-based, human. The settings on record: Homo sapiens, HUVEC, 24 h, HUVEC, 24 hr. The method in brief:
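HUVECs (passages 1–5) were plated at 750 cells/well without fibronectin, grown to a monolayer (3–5 d) and exposed to compounds for 24 h at 37°C, 5% CO2. Hoechst 33342, MitoTracker Orange and calcein AM staining was imaged at 10×; readouts were normalized to 0.5% DMSO vehicle and fit to a four-parameter logistic model.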

The subject of test [1] is iCell cardiomyocytes (human iPSC-derived cardiomyocytes). As to the kind of experiment: High-content imaging of cytotoxicity and mitochondrial integrity in iPSC-CMs. The test is classed as cell-based. Particulars: Homo sapiens, Cardiomyocyte, cardiomyocytes (cm). The procedure, abridged: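 Readouts from high-content images were normalized to vehicle controls containing 0.5% vol/vol DMSO. They were fit to a four-parameter logistic model in R. Points of departure were set using a cutoff of one standard deviation across vehicle control means. Where no concentration–response was seen, the top tested concentration of 100μM was assigned as the no observable adverse effect level.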

The mark [2] stands for this setting: cyto, read-out: POD huvec.cyto.24hr.
The mark [3] stands for this setting: mito, read-out: POD huvec.mito.24hr.
The mark [4] stands for this setting: mitoint, read-out: POD huvec.mitoint.24hr.
[5] abbreviates: nma, read-out: POD huvec.nma.24hr.
Where [6] appears, read: tc, read-out: POD huvec.tc.24hr.
The mark [7] stands for this setting: 1.5 h, cam, 90 min, read-out: POD cm.cam.90min.
Setting [8] is: 1.5 h, mii, 90 min, read-out: POD cm.mii.90min.
Setting [9] is: 1.5 h, mito, 90 min, read-out: POD cm.mito.90min.
The mark [10] stands for this setting: 1.5 h, tc, 90 min, read-out: POD cm.tc.90min.
Where [11] appears, read: 24 h, cam, 24 hrs, read-out: POD cm.cam.24hrs.
[12] abbreviates: 24 h, mii, 24 hrs, read-out: POD cm.mii.24hrs.
Setting [13] is: 24 h, mito, 24 hrs, read-out: POD cm.mito.24hrs.
Where [14] appears, read: 24 h, tc, 24 hrs, read-out: POD cm.tc.24hrs.

As for `Oc1cccc(-c2ccc(Cl)cc2)c1` [3'-OH-PCB 3], the minimal effective concentration in the test on HUVECs (setting [2]) was 1.1 µM; in the test with HUVECs (setting [3]), 0.97 µM; in the test on HUVECs (setting [4]) it was 41.4 µM; in the test on HUVECs (setting [5]), 0.04 µM; in the test with HUVECs (setting [6]), 1.1 µM; in test [1] (setting [7]), 16 µM. In addition, the minimal effective concentration in test [1] (setting [8]) worked out at 35 µM; in test [1] (setting [9]), 15 µM; in test [1] (setting [10]), 14.8 µM; in test [1] (setting [11]), 14.1 µM; in test [1] (setting [12]) it was 23 µM; in test [1] (setting [13]), 14 µM. Further, the minimal effective concentration in test [1] (setting [14]) came to 15.6 µM.

As for `O=S(=O)(O)Oc1cccc(-c2ccc(Cl)cc2)c1` [3'-PCB 3 sulfate], the minimal effective concentration (in the test with HUVECs (setting [2]); in the test on HUVECs (setting [3]); with HUVECs (setting [4]); in the test with HUVECs (setting [5]); in the test with HUVECs (setting [6]); in test [1] (setting [7])) was 100 µM each time. The minimal effective concentration in test [1] (setting [8]) was found to be 89.9 µM; in test [1] (setting [9]), 100 µM; in test [1] (setting [10]) it was 100 µM; in test [1] (setting [11]), 100 µM; in test [1] (setting [12]), 100 µM; in test [1] (setting [13]), 100 µM. Moreover, in test [1] (setting [14]), the minimal effective concentration was determined as 100 µM.
